Laboratory results reported in patent publication US7691564B2, “Heterotrimeric G-protein” (The Johns Hopkins University, priority 2000, dated 2010).
pEC50, pKd: −log10 of the molar value. Read-outs that look alike come from different tables or passages of the source.

Columns and labels:
[1] = test system: G-protein heterotrimer (Gα2-CFP:Gβ-YFP) linked to cAMP chemoattractant receptors; assay: FRET loss in living α2-CFP:β-YFP cells (fluorimeter); assay type: cell-based, D. discoideum; conditions: for pEC50: read-out: EC50 for decrease of the FRET signal
Description: (§1) FIGS. 2A to 2E. Fluorescence spectra of cell lines. (FIG. 2A) Developed cells were excited in a Spex Fluoromax-2 fluorimeter at 440 nm and emission was collected between 460 nm and 600 nm and processed as described (14). Gα2-CFP/g α2^− cells (“α2-CFP”), α2-CFP: β-YFP cells (“α2-CFP: -YFP”), and mixture of equal number of Ga-2-CFP/gα2^− and G β-YFP/g βcells (“mixed cells”). […] Cells were scanned at selected time points following addition of the stimulus. […] Mean intensities were calculated in IPLab Spectrum by manually circumscribing the membrane of multiple cells. […] Arrows indicate the frame at which the stimulus was added. (FIG. 2E) Difference images of consecutive frames of one captured at 3 second intervals were calculated in IPLab Spectrum. […] Calibration bar is 10 μm.
FIGS. 3A to 3B. […] Data was processed as described (34). […] Data from two independent experiments were averaged for each curve.
We excited living, differentiated cells at 440 nm and recorded the emission spectrum between 460 and 600 nm.
• 1. A. G. Gilman, Annu Rev Biochem 56, 615-49 (1987). • 2. H. E. Hamm, J Biol Chem 273, 669-72 (1998). • 3. C. A. Parent, B. J. Blacklock, W. M. Froehlich, D. B. Murphy, P. N. Devreotes, Cell 95, 81-91 (1998). • 4. Z. Xiao, N. Zhang, D. B. Murphy, P. N. Devreotes, J Cell Biol 139, 365-74 (1997). • 5. G. Servant et al., Science 287, 1037-40 (2000). • 6. T. Jin, N. Zhang, Y. Long, C. A. Parent, P. N. Devreotes, Science 287, 1034-6 (2000). • 7. R. Heim, R. Y. Tsien, Curr Biol 6, 178-82 (1996). • 8. The coding region of the β-YFP fusion protein was cloned into the CV5 vector. CV5 was derived from p88 by addition of an actin 15/expression cassette from pMC34 (3). • 9. D. G. Lambright et al., Nature 379, 311-9 (1996). • 10. M. A. Wall et al., Cell 83, 1047-58 (1995) • 11. A. Kumagai et al., Cell 57, 265-75 (1989). • 12. The gene encoding CFP was inserted into a Spe1 site after residue 90, in the loop between the αA and the αB helices, of the Gα2 cDNA. The SpeI site also added a threonine and serine residue at the N and C terminal loundaries of the insertion. This fusion was cloned into the CV5 vector. The gα2^− cells were transformed, and individual G418 resistant clones were selected. […] Equal amounts of plasmids carrying the Gα2-CFP and Gβ-YFP fusions were mixed, transformed into gα2 cells, and individual G418 resistant clones were selected.

cAR1 = target: T1, cAR1 (Dictyostelium discoideum, UniProt P13773); conditions: cited from earlier work; for pKd: literature ref 16, read-out: reported binding affinity (average KD)
T1 sequence (P13773 1-392): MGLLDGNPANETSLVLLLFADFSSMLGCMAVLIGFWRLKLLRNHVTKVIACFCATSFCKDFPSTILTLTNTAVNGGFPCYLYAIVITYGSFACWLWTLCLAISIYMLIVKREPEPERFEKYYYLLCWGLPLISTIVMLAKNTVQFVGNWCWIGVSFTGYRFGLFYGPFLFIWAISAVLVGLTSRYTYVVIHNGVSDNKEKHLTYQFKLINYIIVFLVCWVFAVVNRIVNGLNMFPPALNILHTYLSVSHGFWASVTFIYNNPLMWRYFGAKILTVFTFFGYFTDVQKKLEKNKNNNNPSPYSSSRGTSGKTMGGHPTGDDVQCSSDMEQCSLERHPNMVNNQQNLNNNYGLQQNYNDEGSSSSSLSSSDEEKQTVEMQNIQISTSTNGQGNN

[2] = test system: PH-domain recruitment to membranes; assay: PH domain (PHCRAC-GFP) binding to membranes in cell lysates; assay type: biochemical, D. discoideum
Description: FIGS. 4A to 4C. Continuous activation of the G-protein cycle. […] (FIG. 4B) Receptor regulation of PH domain translocation. […] After 2 minutes membranes were collected and binding of the PHCRAC-GFP was assessed by immunoblot analysis using antibodies to GFP (22). (FIG. 4C) Assessment of cAR1 phosphorylation.

[3] = target: T2, G-protein heterotrimer (Gα2-CFP:Gβ-YFP) (Dictyostelium discoideum, UniProt P16051, INS90[…]); assay: FRET signal in membranes prepared from α-CFP:β-YFP cells; assay type: biochemical, D. discoideum
T2 construct: expressed in transfected cells; host or cells: D. discoideum gα2-null cells (α-CFP:β-YFP cells), CV5 vector, G418-selected clones; living cells in A1 and A3, membranes prepared from them in A4

[4] = test system: G-protein heterotrimer (Gα2-CFP:Gβ-YFP) in α-CFP:β-YFP cells; conditions: saturating dose, within 6 seconds
Description: as §1

[5] = α2-CFP:β-YFP cells, caffeine treated, 10 mM dithiothreitol

In the case of `Nc1ncnc2c1ncn2C1CC2OP(=O)(O)OCC2O1` (stereo not shown) [2′-dcAMP], the pEC50 [1, 5] is given as ~7.70 and the pKd (cAR1) is given as ~6.00.

For `Nc1ncnc2c1ncn2[C@@H]1O[C@H](COP(=O)(O)O)[C@@H](O)[C@H]1O` [5′-AMP], the “effect on the FRET signal” value ([1]; 1 mM) is given as “no effect on the FRET signal” and the “binding to cAR1” value (cAR1) is given as “does not bind to cAR1”.

For `Nc1ncnc2c1nc(Br)n2[C@@H]1O[C@@H]2COP(=O)(O)O[C@H]2[C@H]1O` [8-Br-cAMP], the pEC50 [1, 5] is listed as ~5.70 and the pKd (cAR1) is listed as ~4.49.

In the case of `Nc1nc2c(ncn2[C@@H]2O[C@H](COP(=O)(O)OP(=O)(O)OP(O)(O)=S)[C@@H](O)[C@H]2O)c(=O)[nH]1` [GTPγS], the “binding of PH-domains to membranes” value ([2]; lysates from adapted cells (cAMP 15 minutes)) was “this response was lost”, the “binding of PH-domains to membranes” value ([2]; lysates from naive cells) was “stimulated the binding of PH-domains to membranes” and the “FRET signal of membranes” value ([3]; GTPγS alone (data not shown)) was “not with GTPγS alone”. The “FRET signal of membranes” value ([3]; Mg++ plus GTPγS (data not shown)) was “disappeared”.

In the case of `Nc1ncnc2c1ncn2C1OC2COP(=O)(O)OC2C1O` (stereo not shown) [cAMP, cyclic adenosine 3′, 5′ phosphate], the “FRET signal remaining, % of the initial value” [1] was ~20%, the “change in FRET after adjusting to 10 μM” value [1] was “further decrease in FRET” and the “decrease of the FRET signal” value [1] was “approximately 70%”. For the same molecule, the duration of activation [1] was “Activation did not subside”, the “response as % of the maximum” value [1] was 90% and the “time for the FRET signal to return to its maximal level” value [1] was “within two minutes”. The “time to maximal response after stimulation” value [1] was ≤ 10 s, the pEC50 [1] was ~8.00 and the “decrease of the membrane FRET signal” value [4] was “about 15%”.
